Data set [1] is described as follows: UV-visible titration of ATSM-Cu(II) complex with Cu(II) chelators and peptides (311 nm / 465 nm). The class given is physicochemical. Particulars: for molar equivalents sufficient/needed to remove copper from the ATSM-Cu(II) complex: 30% DMSO in 0.1 M phosphate buffer (pH 7.4). As to the method:
(§1) The stability of the ATSM-Cu(II) complex was tested by using UV-visible spectrophotometry. […] In order to confirm the dissociation of ATSM-Cu(II) complex or the formation of copper complex with ligands or copper chelation by ligands, the effect of ligands on ATSM-Cu(II) was also tested using electron paramagnetic resonance (EPR) spectroscopy.
Stock solutions of CuCl2 (10 mM), 1,10-phenanthroline (10 mM), IDA (10 mM), and L-histidine (10 mM), NTA (5 mM) and Pep1 (5 mM) were prepared in ultrapure water (Milli-Q®). Stock solutions (1 mM) of HAGAH, HGGH and HTGMK peptides were prepared by dissolution in 0.1 M phosphate buffer (pH 7.4).
In order to facilitate the solubility of ATSM-Cu(II) complex, all the measurements were carried out in 30% DMSO in 0.1 M phosphate buffer (pH 7.4), at physiological conditions.

The nature of data set [2]: EPR of ATSM-Cu(II) complex after addition of ligands. The class given is physicochemical. The conditions noted are these: 0.1 mM ATSM-Cu(II), 4 molar equivalents of ligand; 30% DMSO, 0.1 M phosphate buffer (pH 7.4). As to the method:
as §1
The stability of ASTM-Cu(II) complex was further studied by EPR spectroscopy. 0.1 mM of ATSM-Cu(II) complex was prepared in 30% DMSO and 0.1 M phosphate buffer (pH 7.4).

A short description of data set [3]: Low temperature CW-EPR of Cu(II) binding to Ctr1 N-terminal peptides in KPi buffer. Particulars: for percentage of Cu(II) bound to peptide (species other than 4O coordination): 130 K. As to the method: Continuous wave electron […] (CW-EPR) spectra were recorded using an Elexsys™ E500 spectrometer (Bruker) operating at 9.0-9.5 GHz, equipped with a super-high-sensitivity CW resonator. The spectra were recorded at room temperature (RT; 295±2 K) or at low temperature (130±5 K) at a microwave power of 20.0 mW, modulation amplitude of 1.0 G, time constant of 60 or 80 milliseconds, and receiver gain of 60.0 dB. The samples were measured in 0.8 mm or 1.0 mm capillary quartz tubes (VitroCom) at RT. Solutions that were measured at low temperature were mixed with 20% glycerol, and measured in a 3.0 mm or 4.0 mm Wilmad® quartz tube.
Simulation of CW-EPR spectra was performed using MATLAB, with the EasySpin™ toolbox, according to procedures described by Stoll & Schweiger [J Magn Reson 2006, 178:42-55]. In fitting a spectrum to a simulation, emphasis is placed on small peaks of in the region of under 3000G.
The abovementioned peptides Pep1-Pep5 were investigated by CW-EPR measurements at low temperature (130 K), in the presence of different concentrations of Cu(II). The data were subsequently incorporated into simulations using the EasySpin™ tool box, and the first coordination sphere of Cu(II) was determined for each peptide, according to procedures described in Peisach & Blumberg [Arch Biochem Biophys 1974, 165:691-708]. The experimental data and comparisons with simulated data (including parameters derived from the simulations) for peptides Pep1-Pep5, at a variety of peptide:Cu(II) molar ratios, are presented in FIGS. 7-11. FIG. 12 presents the experimental data and comparisons with simulated data for peptides Pep1-Pep5 at a peptide:Cu(II) molar ratio of 1:1.
The simulation for each peptide took into account two Cu(II) species. The first species corresponds to free Cu(II) ions in water, where Cu(II) is coordinated to four oxygen atoms (4O coordination), with g∥=2.39±0.005, A∥=154±2.0 G. The second species corresponds to Cu(II) that is bound to the peptide with coordination of 3N1O or 2N2O.

Data set [4] can be described thus: Reduction of Cu(II) to Cu(I) by ascorbate in the presence of peptide, followed by room temperature EPR intensity. Particulars: 2 mM ascorbate, peptide:ascorbate:Cu(II) 1:2:2; for Cu(II) reduced: within 4000 seconds, room temperature. The protocol: For measuring Cu(II) reduction by EPR spectroscopy, 20 μl of aqueous CuCl2 solution (2 mM) was added to 20 μl of a solution of a tested peptide (1 mM). At time zero, 20 μl of ascorbic acid solution (2 mM) was added, and the solution was mixed under anaerobic conditions. Cu(II) EPR signal intensity (at the maximum EPR signal intensity (g⊥ position)) was measured as a function of time.
The effects of the mutations of the Pep2-Pep5 peptides on the reduction of Cu(II) to Cu(I) was then investigated, by evaluating the room temperature (RT) change in EPR intensity over time, as Cu(I) is EPR-silent. Reduction of Cu(II) was effected in the presence of 2 mM ascorbate (a peptide:ascorbate:Cu(II) molar ratio of 1:2:2). For comparison, the reduction of free Cu(II) in buffer was also measured.

A short description of data set [5]: UV-VIS titration of peptides with Cu(I), absorption at 265 nm. In kind it is binding. Particulars: for absorption at 265 nm upon addition of Cu(I) (Cu(I) binding): 3-20 molar equivalents of Cu(I). As to the method: UV-Visible-IR absorption spectra were obtained using a Cary® Bio 100 spectrophotometer, or using a Chirascan™ spectrometer (Applied Photophysics), at room temperature with a 1 mm optical path-length cell. Acetone was used as a reference. Typically, peptides were measured at a concentration of 0.3 mg/ml. Difference absorption spectra were obtained for peptides titrated with Cu(I) from 200 to 600 nm with a step size and a bandwidth of 0.5 nm.
Cu(I) was added to peptide solutions in the form of tetrakis(acetonitrile)copper(I) hexafluorophosphate under nitrogen gas in order to preserve anaerobic conditions. No Cu(II) signal was observed by EPR, thereby confirming the purity of the Cu(I).
In order to gain further insight into Cu(I) coordination, UV-VIS measurements were performed on the various peptides (as described n the Materials and Methods section hereinabove).

[6] abbreviates: peptide:Cu(II) molar ratio 1:0.6.
The mark [7] stands for this setting: peptide:Cu(II) molar ratio 1:0.8.
Where [8] appears, read: peptide:Cu(II) molar ratio 1:1.4.
The mark [9] stands for this setting: peptide:Cu(II) molar ratio 1:0.4.

Several values for one entry are separate records, joined by “and”; a condition that tells them apart may be missing. Equal entries are not always repeated. No end group written: not given here. *: point of attachment. MTSSL = S-(1-oxyl-2,2,5,5-tetramethyl-2,5-dihydro-1H-pyrrol-3-yl)methyl methanesulfonothioate spin label conjugate, CC1(C)C=C(CS*)C(C)(C)N1[O]

`c1cnc2c(c1)ccc1cccnc12` [1,10-phenanthroline]: in data set [1], the “molar equivalents sufficient/needed to remove copper from the ATSM-Cu(II) complex” value (from here on “molar equivalents sufficient/needed”) is given as “two molar equivalents”. Also, in data set [2], the “effect on electron paramagnetic spectrum of ATSM-Cu(II) complex” value was “induced significant changes”.
As to `CN=C([S-])N/N=C(C)/C(C)=N/NC([S-])=NC.[Cu+2]` [ATSM-Cu(II), Cu(II)-diacetyl-bis(N4-methylthiosemicarbazone)], the “stability of ATSM-Cu(II) complex in the presence of Cu(II) ligands” value in data set [1] (overall conclusion from UV-visible and EPR) is “may be unstable in a cellular environment”.
As to `O=C(O)CNCC(=O)O` [IDA, Imino-diacetic acid], the “molar equivalents sufficient/needed” value in data set [1] is recorded as “at least four molar equivalents”. In data set [2], the “effect on electron paramagnetic spectrum of ATSM-Cu(II) complex” value is given as “induced significant changes”.
HTGMK: the “molar equivalents sufficient/needed” value in data set [1] is “one molar equivalent”.
Take “MDASHHMGMSYMDS (Pep3 peptide amino acid sequence)”: the “percentage of Cu(II) bound to peptide (species other than 4O coordination)” value (“percentage of Cu(II) bound to peptide” below) is on record as 70% in data set [3] (setting [6]); 70% in data set [3] (setting [7]); 63% in data set [3] (setting [8]); 55% in data set [3] (peptide:Cu(II) molar ratio 1:2); 55% in data set [3] (peptide:Cu(II) molar ratio 1:3). Further, the “Cu(II) reduced” value in data set [4] is given as “about 5%”. In addition, in data set [5] (titration with Cu(I)), the “Cu(I):peptide molar ratio at which binding occurred” value was “exceeding 5.0”.
In the case of “MDHSAHMGMSYMDS (Pep4 peptide amino acid sequence)”, the “percentage of Cu(II) bound to peptide” value is recorded as 70% in data set [3] (setting [9]); 80% in data set [3] (setting [6]); 85% in data set [3] (setting [7]); 90% in data set [3] (peptide:Cu(II) molar ratio 1:1); 92% in data set [3] (setting [8]); 94% in data set [3] (peptide:Cu(II) molar ratio 1:2). The “percentage of Cu(II) bound to peptide” value in data set [3] (peptide:Cu(II) molar ratio 1:3) was 97% and 100%. Also, in data set [4], the “reduction of Cu(II) compared with free Cu(II) ions” value is “more rapid than reduction of free Cu(II) ions”. Besides, the “reduction of Cu(II) compared with wild-type peptide” value in data set [4] is on record as “more rapid than in the presence of Pep1”.
In the case of “MDHSHAMGMSYMDS (Pep5 peptide amino acid sequence)”, the “percentage of Cu(II) bound to peptide” value in data set [3] (setting [9]) is 75%; in data set [3] (setting [6]), 75%; in data set [3] (setting [7]) it was 75%; in data set [3] (setting [8]), 40%; in data set [3] (peptide:Cu(II) molar ratio 1:2), 40%; in data set [3] (peptide:Cu(II) molar ratio 1:3), 30%. Besides, the “reduction of Cu(II) compared with wild-type peptide” value in data set [4] is “more rapid than in the presence of Pep1”.
Take “MDHSHHMAMSYMDS (Pep2 peptide amino acid sequence)”: the “percentage of Cu(II) bound to peptide” value in data set [3] (setting [9]) was 60%; in data set [3] (setting [6]) it was 80%; in data set [3] (setting [7]), 85% and 80%; in data set [3] (peptide:Cu(II) molar ratio 1:1), 70%; in data set [3] (setting [8]), 60%; in data set [3] (peptide:Cu(II) molar ratio 1:2), 62%. For the same compound, the “percentage of Cu(II) bound to peptide” value in data set [3] (peptide:Cu(II) molar ratio 1:3) amounted to 58%. Besides, the “Cu(II) reduced” value in data set [4] is “about 5%”.
For the compound “MDHSHHMGMSYMDS (Pep1 peptide amino acid sequence)”, the “Cu(II) bound to peptide” value in data set [3] (low Cu(II) concentrations) is on record as “substantially all Cu(II) is bound”. In addition, the “percentage of Cu(II) bound to peptide” value was 80% in data set [3] (peptide:Cu(II) molar ratio 1:1), 70% in data set [3] (setting [8]), 70% in data set [3] (peptide:Cu(II) molar ratio 1:2) and 70% in data set [3] (peptide:Cu(II) molar ratio 1:3). In addition, the “Cu(II) reduced” value in data set [4] was “about 5%”.
“MTSSL-CMDHSHHAGMSYMDSC-MTSSL (C(MTSSL)MDHSHHAGMSYMDSC(MTSSL)-NH2; N-terminus assumed; SMILES CSCC[C@H](NC(=O)CNC(=O)[C@H](C)NC(=O)[C@H](Cc1c[nH]cn1)NC(=O)[C@H](Cc1c[nH]cn1)NC(=O)[C@H](CO)NC(=O)[C@H](Cc1c[nH]cn1)NC(=O)[C@H](CC(=O)O)NC(=O)[C@H](CCSC)NC(=O)[C@@H](N)CSSCC1=CC(C)(C)N([O])C1(C)C)C(=O)N[C@@H](CO)C(=O)N[C@@H](Cc1ccc(O)cc1)C(=O)N[C@@H](CCSC)C(=O)N[C@@H](CC(=O)O)C(=O)N[C@@H](CO)C(=O)N[C@@H](CSSCC1=CC(C)(C)N([O])C1(C)C)C(N)=O) [Pep8]”: in data set [5], the “absorption at 265 nm upon addition of Cu(I) (Cu(I) binding)” value (shortened to “absorption at 265 nm upon addition”) was “did not change upon addition of Cu(I)”.
“MTSSL-CMDHSHHMGASYMDSC-MTSSL (C(MTSSL)MDHSHHMGASYMDSC(MTSSL)-NH2; N-terminus assumed; SMILES CSCC[C@H](NC(=O)[C@H](Cc1c[nH]cn1)NC(=O)[C@H](Cc1c[nH]cn1)NC(=O)[C@H](CO)NC(=O)[C@H](Cc1c[nH]cn1)NC(=O)[C@H](CC(=O)O)NC(=O)[C@H](CCSC)NC(=O)[C@@H](N)CSSCC1=CC(C)(C)N([O])C1(C)C)C(=O)NCC(=O)N[C@@H](C)C(=O)N[C@@H](CO)C(=O)N[C@@H](Cc1ccc(O)cc1)C(=O)N[C@@H](CCSC)C(=O)N[C@@H](CC(=O)O)C(=O)N[C@@H](CO)C(=O)N[C@@H](CSSCC1=CC(C)(C)N([O])C1(C)C)C(N)=O) [Pep9]”: the “absorption at 265 nm upon addition” value in data set [5] is “did not change upon addition of Cu(I)”.
On to “MTSSL-CMDHSHHMGMSYADSC-MTSSL (C(MTSSL)MDHSHHMGMSYADSC(MTSSL)-NH2; N-terminus assumed; SMILES CSCC[C@H](NC(=O)CNC(=O)[C@H](CCSC)NC(=O)[C@H](Cc1c[nH]cn1)NC(=O)[C@H](Cc1c[nH]cn1)NC(=O)[C@H](CO)NC(=O)[C@H](Cc1c[nH]cn1)NC(=O)[C@H](CC(=O)O)NC(=O)[C@H](CCSC)NC(=O)[C@@H](N)CSSCC1=CC(C)(C)N([O])C1(C)C)C(=O)N[C@@H](CO)C(=O)N[C@@H](Cc1ccc(O)cc1)C(=O)N[C@@H](C)C(=O)N[C@@H](CC(=O)O)C(=O)N[C@@H](CO)C(=O)N[C@@H](CSSCC1=CC(C)(C)N([O])C1(C)C)C(N)=O) [Pep10]”, for which the “absorption at 265 nm upon addition” value in data set [5] is given as “did not change upon addition of Cu(I)”.

The values above are taken from US12156922B2, “Copper-containing complex and uses thereof” (Bar-Ilan University, priority 2017, dated 2024).
